The text below walks through data of PubChem BioAssay (NCI).

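Five concentrations, 48 hours, 96-well plates. GI50: concentration for 50% inhibition of growth. TGI denotes the concentration required for complete inhibition of growth.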

Experiment in all cases: inhibition of tumour cell growth, NCI panel, 48 h
The subject of assay [1] is RPMI-8226 leukemia.
The test system of assay [2] is HT29 colon.
For assay [3], the system named is UO-31 renal.
Assay [4] has as its system COLO 205 colon.
Assay [5] concerns UACC-62 melanoma.
The subject of assay [6] is NCI-H460 lung.
The subject of assay [7] is M14 melanoma.
In assay [8] the test system is HOP-92 NSCLC.
Assay [9] deals with DU-145 prostate.

Take `N#CC(c1ccc(Cl)cc1)c1cccc(Cl)n1` (configuration not stated): the TGI in assay [1], in [2], in assay [3], in assay [4], in assay [5] and in [6] was above 100 µM each time. Besides, the TGI in assay [7] is above 100 µM; in assay [8], 74.8 µM.
Consider `CO/C=C/c1cc2c(cc1C(OC)OC)OCO2`, for which the TGI in [2] was above 100 µM; in [3], above 100 µM; in assay [5] it was 69.1 µM; in assay [6] it was above 100 µM; in assay [7], 87.9 µM; in assay [8], above 100 µM.
As to `Cc1ccc(C2=NN(C)COC2C(F)(F)F)cc1` (configuration not stated), the TGI in assay [1], in assay [2], in assay [3], in assay [4], in assay [5] and in [6] was above 100 µM in each case. Further, the TGI in assay [7] and in [8] was above 100 µM in each case.
Regarding `CCC12CC[C@H](C#N)N3CCc4c(n(c5ccccc45)C(=O)C1)C32` (some centres not stated), the TGI in assay [1] turned out to be 48.9 µM; in [2], 31.3 µM; in assay [3], 10.2 µM; in [4], 43.1 µM; in [5], 33.4 µM; in assay [6] it was 33.8 µM. Moreover, in assay [7], the TGI was found to be 44.9 µM.
On to `O=C(O/N=C1/CCC/C1=C\c1ccccc1)c1ccccc1`, for which the TGI in assay [1], in assay [2], in assay [4], in [5], in assay [7] and in assay [8] was above 100 µM in each case.
Consider `COc1ccc(C2c3cc4c(cc3OC(O)(CO)C2C(=O)O)OCO4)c(OC)c1OC` (configuration not stated) (tested in a mixture with another compound), for which the TGI in assay [1], in assay [2], in [3], in assay [4], in assay [5] and in [6] was above 100 µM in each case. Further, the TGI in [7] and in assay [8] was above 100 µM each time.
With `CC1CC(C)C(=O)C(C(=O)CC2CC(=O)NC2=O)C1` (configuration not stated), the TGI in [1], in assay [2], in assay [3], in [4], in assay [5] and in assay [6] was above 100 µM each time. The TGI in assay [7] and in assay [8] was above 100 µM each time.
On to `N#Cc1c(C(N)=O)ncn1Cc1ccccc1`, for which the TGI in assay [1], in assay [2], in assay [3], in [4], in assay [5] and in assay [6] was above 100 µM in each case. For the same compound, the TGI in assay [7] and in assay [8] was above 100 µM each time.
Turning to `Cn1cc(C(=O)/C(Cl)=C(\Cl)C(=O)O)c2ccccc21`, the TGI in assay [1], in assay [2], in [3], in assay [5], in [6] and in assay [7] was above 100 µM each time.
On to `O=C(Nc1ccc(N=Nc2ccccc2)cc1)Sc1ccccc1C(=O)O`, for which the TGI in assay [1], in [2], in assay [3], in assay [4], in [5] and in assay [6] was above 100 µM throughout. The TGI in assay [7] was above 100 µM.
As to `CC(=O)Oc1cc2c(=O)oc3c(OC(C)=O)c(OC(C)=O)c(OC(C)=O)c4c(=O)oc(c1OC(C)=O)c2c34`, the TGI in assay [1], in assay [2], in assay [3], in assay [4], in assay [5] and in assay [6] was above 100 µM in each case. Besides, the TGI was above 100 µM in [7] and 96.9 µM in assay [8].
With `CC(=O)[CH-]C(C)=O.CC(=O)[CH-]C(C)=O.CC(=O)[CH-]C(C)=O.[Cl-].[Hf+4]`, the GI50 in assay [1], in assay [2], in assay [3], in assay [4], in [5] and in assay [6] was above 100 µM throughout. The GI50 in assay [7] and in assay [8] was above 100 µM each time. Moreover, the TGI in [1], in [2], in [3], in assay [4], in assay [5] and in assay [6] was above 100 µM each time. Besides, the TGI in [7] and in [8] was above 100 µM each time.
Regarding `O=C(Nc1nc(-c2ccc(Cl)cc2)cs1)c1ccc(O)c(O)c1`, the GI50 is 2.14 µM in assay [1]; 11.6 µM in assay [2]; 2.29 µM in [3]; 4.43 µM in assay [9]; 11.4 µM in [4]; 4.24 µM in [5]. The GI50 in [6] was 3.26 µM; in assay [7] it was 4.87 µM; in assay [8], 2.67 µM. For the same compound, the TGI in assay [1] was determined as 10.7 µM; in [2] it was 24.7 µM; in assay [3], 10.6 µM; in assay [9] it was 15.9 µM; in [4], 26.5 µM; in assay [5], 18.1 µM. Besides, the TGI in assay [6] stood at 12.2 µM; in assay [7] it was 20.5 µM; in assay [8], 9.18 µM.
Regarding `C/C(=N\[N+](C)(C)C)C(c1ccccc1)C1(c2ccccc2)C(c2ccccc2)=C1c1ccccc1` (configuration not stated), the TGI in assay [1], in assay [2], in assay [3], in [5], in assay [6] and in [7] was above 100 µM in each case. In assay [8], this compound had a TGI above 100 µM.
For the compound `Cc1ccc(NC(=O)/C(=N/NC(=O)CC#N)C2C(=O)N(c3ccccc3)N=C2N)cc1C` (configuration not stated), the TGI in assay [1], in [2], in [3], in [4], in [5] and in assay [6] was above 100 µM each time. The TGI in assay [7] and in assay [8] was above 100 µM each time.
As to `NC1=NN(c2ccccc2)C(=O)C1C(=O)C(=O)Nc1cccc(C(F)(F)F)c1` (configuration not stated), the TGI in [1], in assay [2], in assay [3], in [4], in [5] and in assay [6] was above 100 µM in each case. The TGI in assay [7] and in assay [8] was above 100 µM each time.
With `O=C(/C=C\c1cccc2ccccc12)c1ccc(Br)cc1`, the TGI in assay [1] amounted to 45.9 µM; in [2], 35.3 µM; in assay [3], 42.5 µM; in assay [4] it was 91.6 µM; in [5] it was 29.3 µM; in [6], 37.2 µM. In addition, the TGI was 32 µM in assay [7] and 85.6 µM in [8].
In the case of `O[C@H]1[C@H]2[C@H](O)CCCN2C[C@H]1O`, the TGI in [1], in assay [2], in assay [3], in assay [4], in assay [5] and in assay [6] was above 100 µM each time. Also, the TGI in assay [7] and in [8] was above 100 µM in each case.
`C/C=C/CP(=O)(c1ccccc1)c1ccccc1`: the TGI in [1], in assay [2], in assay [3], in assay [4], in assay [5] and in [6] was above 100 µM in each case. In assay [7], the TGI was above 100 µM.
For `NC(=S)N/N=C1\C(=O)N(c2cccc([N+](=O)[O-])c2)C(=O)C1C(=O)Nc1cccc([N+](=O)[O-])c1` (configuration not stated), the TGI in assay [1], in assay [2], in assay [3], in assay [4], in assay [5] and in assay [7] was above 100 µM in each case. Also, in [8], the TGI was above 100 µM.
In the case of `Cc1cc(Nc2nc(N3CCOCC3)nc3ccccc23)n[nH]1`, the GI50 is 22.5 µM in assay [1]; 5.09 µM in assay [2]; 1.38 µM in assay [3]; 13.3 µM in assay [9]; 3.09 µM in assay [4]; 4.45 µM in assay [6]. Moreover, the GI50 is 7.14 µM in assay [7] and 4.22 µM in assay [8]. Besides, the TGI is above 100 µM in assay [1]; 52.8 µM in [2]; 11.2 µM in [3]; above 100 µM in [9]; 11.9 µM in [4]; above 100 µM in assay [6]. In addition, the results for the TGI in assay [7] and in [8] were above 100 µM and 62.8 µM, respectively.
Regarding `CC1(C)OC(=O)C=C(O)O1.CC1(C)OC(=O)C=C(O)O1.CCO.Oc1ccc2c(c1)CCC2.[Ti]`, the GI50 in assay [1], in assay [2], in assay [3], in assay [4], in assay [5] and in [6] was above 100 µM throughout. Moreover, the GI50 in assay [7] is above 100 µM. The TGI in assay [1], in [2], in [3], in [4], in assay [5] and in [6] was above 100 µM each time. For the same compound, the TGI in assay [7] is above 100 µM.
